# According to US20090197891A1, “Use of (4-Alkylpiperazinyl)(phenyl) methanones in the treatment of alzheimer's disease” (priority 2004, published 2009):
# “Also recorded” adds a separate entry of the source.
# Key:
# Type in all cases: cell-based, rat
# [1] = system: PC12 cells; experiment: Glutamate-induced excitotoxicity, cell viability by MTT assay; conditions: for prevention of glutamate-induced neurotoxicity: 24 h pre-treatment with compound 0.3-30 μM
# Experimental: To study the role played by the NMDA receptor in the Aβ1-42-induced neurotoxicity, increasing concentrations of (+)-MK801 were added to the cell media immediately before Aβ1-42. Cell viability was assessed 4 hours later using the MTT assay. To assess the effect of procaine and SP008 on the glutamate-induced excitotoxicity, PC12 cells were pre-treated with procaine or SP008 at 0.3, 1, 3, 10 and 30 μM for 24 hours and then submitted to glutamate exposure for another 24 hour time period. Cell viability was subsequently assessed using the MTT assay. To assess the role of sodium channels in A8142-induced neurotoxicity, PC12 cells were incubated for 4 hours with the sodium-channel blocker TTX at 3, 30 or 300 μM followed by addition of Aβ1-42. Cell viability was assessed by MTT 24 hours later. The involvement of the oxidative stress in the toxicity of Aβ1-42 was assessed by incubating the PC12 in the presence of 10, 100 or 500 μM PBN for 24 hours. Aβ1-42 was then added to the incubation media. Cell viability was assessed by MTT 24 hours later.
# (§1) The cellular toxicity of Aβ was assessed using the 3-(4,5-dimethylthiazol-2-yl)-2,5-diphenyl tetrazolium bromide (MTT) assay (Trevigen, Gaithersburg, Md.) as previously described (Lecanu et al. (2004) Steroids, 69: 1-16). Briefly, 10 μl of the MTT solution were added to the cells cultured in 100 μl of medium. After an incubation period of 4 hours in the same conditions as above, 100 μl of detergent were added and cells incubated overnight at 37° C. The blue coloration was quantified at 600 nm and 690 nm using the Victor spectrophotometer (EGG-Wallac, Gaithersburg, Md.). The effect of Aβ1-42 was expressed as (DO600-DO690). To compare the protective effect of the compounds tested, the decrease of MTT signal observed with Aβ1-42 was considered to be the 100% inhibition of the NADPH diaphorase activity and the effect of the compounds tested is shown as an increase or decrease of this percentage.
# [2] = system: PC12 cells; experiment: Aβ1-42-induced neurotoxicity, cell viability by MTT assay
# Experimental: (§2) PC12 cells (rat pheochromocytoma) (ATCC, Manassas, Va.) were cultured in RPMI 1640 without glutamine medium containing 10% of bovine serum and 5% of horse serum at 37° and 5% CO2. These cells respond reversibly to NGF by induction of the neuronal phenotype. PC12 cells were incubated for 24 hours in 96-well plates (5.10^4 cells per well) with increasing concentrations (1, 10 and 100 μM) of procaine, procainamide, lidocaine, tetracaine, SP015, SP016, SP017 or SP008. Aβ1-42 was incubated overnight at 4° C. and then added to the cells at 0.1, 1 or 10 μM final concentrations for a 24 hours time period.
# as §1
# [3] = system: PC12 cells; experiment: Aβ1-42-induced ATP depletion, ATPLite-M assay; conditions: for protective effect on mitochondrial function / ATP content: compound at 1 μM
# Experimental: as §2
# ATP concentrations were measured using the ATPLite-M™ assay (Packard BioSciences Co.), as previously described (Lecanu et al., cited above). In brief, cells were cultured on black 96-well ViewPlate™ and the ATP concentrations measured on a TopCount NXT™ counter (Packard BioSciences Co.) according to the manufacturer recommendations. The effect of Aβ1-42 was expressed in arbitrary units. To compare the potential protective effect of the compounds tested on ATP recovery, the decrease of ATP concentration induced by Aβ1-42 was considered to be 100% reduction and the effects of the compounds tested are shown as changes of this percentage.
smiles,measurement,setting,value
"CCN1CCN(C(=O)c2ccc(OC)c(OC)c2OC)CC1 [SP008, 4-Ethyl-1-(2,3,4-trimethoxybenzoyl)-piperazine]","inhibition of the neurotoxic effect of glutamate, general statement",[1],inhibited the neurotoxic effect
same,lowest concentration reducing glutamate-induced neurotoxicity,[1],0.3 µM
same,prevention of glutamate-induced neurotoxicity,[1]; glutamate 100 μM,biphasic
same,neuroprotective effect compared with procaine at the same concentration,"[1]; glutamate 100 μM, p<0.001",more important than the procaine effect
same,concentration of maximum (peak) protective effect,"[1]; glutamate 100 μM, p<0.001 compared to control",3 µM
same,"neuroprotection against Aβ1-42 (PC12 viability), general statement",[2],significant neuroprotective properties; also recorded: strong neuroprotective properties
same,protective effect against Aβ1-42-induced cytotoxicity (MTT),"[2]; 0.1 μM Aβ1-42, compound at 10 μM, p<0.01",exerted a protective effect
same,reduction of Aβ1-42-induced NADPH diaphorase inhibition (MTT),"[2]; 0.1 μM Aβ1-42, compound at 1 and 100 μM",did not reduce
same,neuroprotective effects against Aβ1-42 (MTT),"[2]; 1 μM Aβ1-42, compound at 1 (p<0.05), 10 (p<0.01) and 100 μM (p<0.001)",demonstrated neuroprotective effects
same,neuroprotective properties against Aβ1-42-induced toxicity (MTT),"[2]; 10 μM Aβ1-42, compound at 10 (p<0.05) and 100 μM (p<0.01)",displayed neuroprotective properties
same,potency against Aβ1-42 compared with procaine,[2]; two highest concentrations of Aβ1-42,more potent than procaine
same,"preservation of intracellular ATP against Aβ1-42, general statement",[3],preserved Aβ1-42-induced ATP depletion
same,preservation of Aβ1-42-depleted ATP stock,"[3]; 0.1 μM Aβ1-42, compound at 10 μM",did not preserve
same,prevention of ATP decrease,"[3]; 0.1 μM Aβ1-42, compound at 1 and 100 μM, p<0.05",prevented the ATP decrease
same,ATP preservation,"[3]; 1 μM Aβ1-42, compound 1-100 μM",dose-dependent ATP preservation
same,restoration of ATP levels,"[3]; 10 μM Aβ1-42, only 100 μM compound statistically significant (p<0.01)",dose-dependent restoration of ATP levels
same,prevention of Aβ1-42-induced intracellular ATP stock depletion,[3]; even against 10 μM Aβ1-42,prevent the Aβ1-42-induced intracellular ATP stock depletion
"CC(=O)OC1CC(O)C2(C)C(OC(C)=O)C3C(CC(C)C12)OC(=O)C3CN1CCN(C(=O)c2ccccc2)CC1 (stereo not drawn) [SP015, Acetic acid 7-acetoxy-3-(4-benzoyl-piperazin-1-yl-methyl)-5-hydroxy-4a,8-dimethyl-2-oxo-dodecahydro-azuleno[6,5-b]furan-4-yl ester]","neuroprotection against Aβ1-42 (PC12 viability), general statement",[2],neuroprotection
same,neuroprotective effect on PC12 viability after Aβ1-42 exposure,"[2]; compound at 1 and 10 μM, only against 10 μM Aβ1-42",displayed a neuroprotective effect
same,"preservation of intracellular ATP against Aβ1-42, general statement",[3],preservation of the ATP cellular stocks
same,protective effect on mitochondrial function / ATP content,[3]; highest Aβ1-42 concentration examined,important protection
"CC(=O)OC1CC(OC(C)=O)C2(C)C(O)C3C(CC(C)C12)OC(=O)C3CN1CCN(C(=O)c2ccccc2)CC1 (stereo not drawn) [SP016, acetic acid 5-acetoxy-3-(4-benzoylpiperazin-1-yl-methyl)-4-hydroxy-4a,8-dimethyl-2-oxo-dodecahydro-azuleno[6,5-b]furan-7-yl ester]","neuroprotection against Aβ1-42 (PC12 viability), general statement",[2],no effect was observed
same,"preservation of intracellular ATP against Aβ1-42, general statement",[3],preservation of the ATP cellular stocks
same,protective effect on mitochondrial function / ATP content,[3]; low Aβ1-42 concentrations (0.1 μM),significant effect
"CC1=CCC23OC2(C)CCC2C(CN4CCN(C(=O)c5ccccc5)CC4)C(=O)OC2C13 (stereo not drawn) [SP017, 3-(4-benzoyl-piperazin-1-yl-methyl)-6,6a-epoxy-6,9-dimethyl-3a,4,5,6,6a,7,9a,9b-octahydro-3H-azuleno[4,5-b]furan-2-one]","efficacy range, inhibition of Aβ1-42 toxicity (mitochondrial diaphorase activity)",[2],30-70%
same,"neuroprotection against Aβ1-42 (PC12 viability), general statement",[2],highest protective effect; also recorded: neuroprotection
same,"preservation of intracellular ATP against Aβ1-42, general statement",[3],preservation of the ATP cellular stocks
"CCN(CC)CCOC(=O)c1ccc(N)cc1 [procaine, reference compound]","inhibition of the neurotoxic effect of glutamate, general statement",[1],inhibited the neurotoxic effect
same,prevention of glutamate-induced neurotoxicity,[1]; glutamate 100 μM,prevented the glutamate-induced neurotoxicity in a biphasic manner
same,"preservation of intracellular ATP against Aβ1-42, general statement",[3],restore partially
